Assay results reported in US8440624B2, “Peptide whitening agents and cosmetic compositions comprising the same” (Chanel Parfums Beaute, priority 2007, dated 2013).
Where a SMILES comes first, the peptide text is derived from it. Where no end group is shown, it is not given here. The star is where a group is joined. Palmitoyl = CCCCCCCCCCCCCCCC(=O)*

Columns and labels:
[1] = system: B16 melanoma cells; experiment: Effect on melanogenesis (melanin, absorption at 405 nm) boosted by NDP-MSH; format: cell-based; settings: for inhibition of the synthesis of melanine: with NDP-MSH, 96 hours
Experimental: (§1) B16 melanoma cells were cultured at 37° C. and 5% of CO2 in microplates with 96 wells in the presence of DMEM (Invitrogen, reference 11880028) containing 1 g/l of glucose without phenol red supplemented by 3 g/l of glucose (Sigma, reference G7021), 2 mM of L-glutamine, 50 UI/ml of penicillin, 50 μg/ml of […] (Invitrogen, reference 15070063) and 10% of fetal veal serum (Invitrogen, 10270098). After 24 h, the culture medium is replaced by a DMEM medium containing or not (control) a stable derivative of α-MSH, i.e. NDP-MSH (NLE-4-D-PHE-7-A Melanocytes Stimulating Hormone, Sigma, reference M-8764) and containing or not the peptide (compound 3 of example 1 or its N-palmitoyl derivative) according to the invention. Each peptide was tested with and without lipofectamine, (Invitrogen, reference 1538-100), an agent used to facilitate the peptide penetration. The melanocytes were then incubated for 72 hours at 37° C. and 5% of CO2.
The protocol used is the same as in example 3. The melanocytes were incubated for 96 hours at 37° C. and 5% of CO2. Kojic acid was used as a positive control.
At the end of the incubation period, the quantity of melanine was evaluated by measuring the absorption at 405 nm for each sample.

[2] = system: B16 melanoma cells; experiment: Melanocyte intracellular penetration of peptide+FITC; format: cell-based; settings: 72 hours
Experimental: as §1
At the end of the incubation period, the medium was eliminated and cells were rinsed with a solution of PBS (phosphate buffer saline). The penetration of each peptide was analyzed by microscopy (In Cell Analyser® 100, GE Healthcare) with the objective ×20 or by Flux Cytometry after unsticking of cells by enzymatic treatment with trypsine (Flux FACSarray, Becton Dickinson).
The following table 1 illustrates the measurement of the penetration of the peptide+FITC (fluoresceine isothiocyanate) in B16 melanocytes at different peptide concentrations (4, 20, 100 and 500 μg/ml).

[3] = system: binding of AP-2 to the dileucine-based sorting signal containing tyrosinase; experiment: BIAcore competition: binding of AP-2 to tyrosinase tail peptide; parameters: species or system human; settings: 200 nM adaptor, 10-1000 fold molar excess of peptide; FIG. 3
Experimental: (§2) Human tyrosinase also contains tyrosine residues in its cytoplasmic tail sequence, however they are not relevant with respect to adaptor binding. Instead, the tail contains a dileucine-based sorting signal that is bound by adaptors such as AP-2 and AP-3.
(§3) Binding between adaptors and the tyrosinase tail peptide was recorded in real-time using a BIAcore 3000 biosensor (GEHealthcare) based on surface plasmon resonance. The tyrosinase tail peptide (sequence: -[…]) (SEQ ID NO: 6) was immobilized on the surface of a CM5 sensor surface using thiol coupling and resulting in the immobilization of ≦300 RU of peptide. In brief, the CM5 surface was activated with EDC/NHS for 2 min at a flow-rate of 10 μl/min, followed by modification with PDEA for another 2 min. Subsequently, peptide was injected at a flow-rate of 5 μl/min for 1 min at a concentration of 5 μg/ml in 10 mM sodium acetate pH 4.5. The flow-rate was then adjusted to 20 μl/min and remaining active groups were blocked by injection of 50 mM cysteine, 1M NaCl. […]
(§4) For competition experiments, 200 nM adaptors were incubated with a 10-1000 fold molar excess of one of the 5 compound peptides for 10 min prior to injection. For comparison of adaptor binding to the immobilized tyrosinase tail, the RU values at the end of the injection (association period) and after the dissociation period were evaluated. […]

[4] = system: binding of AP-3 to the dileucine-based sorting signal containing tyrosinase; experiment: BIAcore competition: binding of AP-3 to tyrosinase tail peptide; parameters: species or system human; settings: 200 nM adaptor, 10-1000 fold molar excess of peptide; FIG. 4
Experimental: as §2, §3, §4

[5] = without lipofectamine, 20 μg/ml
[6] = without lipofectamine, 100 μg/ml
[7] = without lipofectamine, 500 μg/ml

Compound	inhibition of the NDP-MSH induction of the synthesis of melanin ([1]; tested between 36 and 80 μg/ml)	inhibition of the synthesis of melanine ([1]; 6.9 μg/ml)	inhibition of the synthesis of melanine ([1]; 15.6 μg/ml)	inhibition of the synthesis of melanine ([1]; 36 μg/ml)	inhibition of the synthesis of melanine ([1]; 80 μg/ml)	penetration of the peptide+FITC in B16 melanocytes ([2]; with lipofectamine, 4 μg/ml) [% control]	penetration of the peptide+FITC in B16 melanocytes ([2]; with lipofectamine, 20 μg/ml) [% control]	penetration of the peptide+FITC in B16 melanocytes ([2]; with lipofectamine, 100 μg/ml) [% control]	penetration of the peptide+FITC in B16 melanocytes ([2]; with lipofectamine, 500 μg/ml) [% control]	penetration of the peptide+FITC in B16 melanocytes ([2]; without lipofectamine, 4 μg/ml)	penetration of the peptide+FITC in B16 melanocytes [2, 5] [% control]	penetration of the peptide+FITC in B16 melanocytes [2, 6] [% control]	penetration of the peptide+FITC in B16 melanocytes [2, 7] [% control]	inhibition of the synthesis of melanine ([1]; without lipofectamine, 0.5 μg/ml)	inhibition of the synthesis of melanine ([1]; without lipofectamine, 1 μg/ml)	inhibition of the synthesis of melanine ([1]; without lipofectamine, 2.5 μg/ml)	inhibition of the synthesis of melanine ([1]; without lipofectamine, 5 μg/ml)	inhibition of the synthesis of melanine ([1]; without lipofectamine, 10 μg/ml)	inhibition of the binding of AP-2 to tyrosinase [3]	inhibition of the binding of AP-3 to tyrosinase [4]
O=c1cc(CO)occ1O [Kojic acid, reference compound]	sharply inhibited	−13 % of inhibition	−7 % of inhibition	33 % of inhibition	75 % of inhibition															
CCCCCCCCCCCCCCCC(=O)N[C@@H](C)C(=O)N[C@@H](CCC(=O)O)C(=O)N[C@@H](CC(=O)O)C(=O)N[C@@H](CCC(=O)O)C(=O)N1CCC[C@H]1C(=O)N[C@@H](CC(C)C)C(=O)N[C@@H](CC(C)C)C(=O)N[C@@H](CCSC)C(=O)N[C@@H](CCC(=O)O)C(=O)O [N-palmitoyl derivative of compound 3] (Palmitoyl-AEDEPLLME-OH; C-terminus assumed)						765	1495	1331	7726	276 % control	364	1486	982	ns *	9 % of inhibition	10 % of inhibition	14 % of inhibition	20 % of inhibition		
AEDEPLLME [Compound 3, AEDEPLLME]						166	338	1097	4265	ns *	263	533	1640							
AEDEPLLVD [Compound 4]																			most active	most active
